Source: US7205305B2, “Inhibitors of p38” (Vertex Pharmaceuticals Incorporated, priority 1996, dated 2007)
Read-outs that look alike come from different tables or passages of the source.

Experiments:
activated p38 = activated p38 (Homo sapiens, UniProt Q16539); assay: Inhibition of phosphorylation of EGF receptor peptide ("kinase"); format: biochemical; conditions: inhibition of phosphorylation of EGF receptor peptide by activated p38
Method in brief: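 Activated p38 was preincubated with inhibitor for 15 min at room temperature in 100 mM HEPES pH 7.6, 10 mM MgCl2, 25 mM β-glycerophosphate, 10% glycerol, 5% DMSO final. Reaction used 200 μM EGF receptor peptide and 100 μM ATP for 30 min at 30° C. TFA-quenched phosphopeptide was quantified by reverse-phase HPLC.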

[1] = tested on: IL-1 production in LPS-stimulated PBMCs; assay: Inhibition of IL-1 production in LPS-stimulated PBMCs ("cell"); format: cell-based, human
Method: (§1) Inhibitors were serially diluted in DMSO from a 20 mM stock. At least 6 serial dilutions were prepared. Then 4× inhibitor stocks were prepared by adding 4 μl of an inhibitor dilution to 1 ml of RPMI1640 medium/10% fetal bovine serum. The 4× inhibitor stocks contained inhibitor at concentrations of 80 μM, 32 μM, 12.8 μM, 5.12 μM, 2.048 μM, 0.819 μM, 0.328 μM, 0.131 μM, 0.052 μM, 0.021 μM etc. The 4× inhibitor stocks were pre-warmed at 37° C. until use.
(§2) Fresh human blood buffy cells were separated from other cells in a Vacutainer CPT from Becton & Dickinson (containing 4 ml blood and enough DPBS without Mg^2+/Ca^2+ to fill the tube) by centrifugation at 1500×g for 15 min. Peripheral blood mononuclear cells (PBMCs), located on top of the gradient in the Vacutainer, were removed and washed twice with RPMI1640 medium/10% fetal bovine serum. PBMCs were collected by centrifugation at 500×g for 10 min. The total cell number was determined using a Neubauer Cell Chamber and the cells were adjusted to a concentration of 4.8×10^6 cells/ml in cell culture medium (RPMI1640 supplemented with 10% fetal bovine serum).
(§3) We placed 100 μl of cell suspension or whole blood in each well of a 96-well cell culture plate. Then we added 50 μl of the 4× inhibitor stock to the cells. Finally, we added 50 μl of a lipopolysaccharide (LPS) working stock solution (16 ng/ml in cell culture medium) to give a final concentration of 4 ng/ml LPS in the assay. The total assay volume of the vehicle control was also adjusted to 200 μl by adding 50 μl cell culture medium. The PBMC cells or whole blood were then incubated overnight (for 12–15 hours) at 37° C./5% CO2 in a humidified atmosphere.
(§4) The next day the cells were mixed on a shaker for 3–5 minutes before centrifugation at 500×g for 5 minutes. Cell culture supernatants were harvested and analyzed by ELISA for levels of IL-1b (R & D Systems, Quantikine kits, #DBL50), TNF-α (BioSource, #KHC3012), IL-6 (Endogen, #EH2-IL6) and IL-8 (Endogen, #EH2-IL8) according to the instructions of the manufacturer. The ELISA data were used to generate dose-response curves from which IC50 values were derived.

[2] = tested on: TNF production in LPS-stimulated PBMCs; assay: Inhibition of TNF production in LPS-stimulated PBMCs ("cell"); format: cell-based, human
Method: as §1, §2, §3, §4

[3] = tested on: IL-1 production in whole blood; assay: Inhibition of IL-1 production in LPS-stimulated whole blood ("WB"); format: cell-based, human
Method: as §1
(§5) Alternatively, whole blood containing an anti-coagulant was used directly in the assay.
as §3, §4

[4] = tested on: TNF production in whole blood; assay: Inhibition of TNF production in LPS-stimulated whole blood ("WB"); format: cell-based, human
Method: as §1, §5, §3, §4

[5] = tested on: IL-6 production in whole blood; assay: Inhibition of IL-6 production in LPS-stimulated whole blood ("WB"); format: cell-based, human
Method: as §1, §5, §3, §4

activated p38, sequence (Q16539 whole entry): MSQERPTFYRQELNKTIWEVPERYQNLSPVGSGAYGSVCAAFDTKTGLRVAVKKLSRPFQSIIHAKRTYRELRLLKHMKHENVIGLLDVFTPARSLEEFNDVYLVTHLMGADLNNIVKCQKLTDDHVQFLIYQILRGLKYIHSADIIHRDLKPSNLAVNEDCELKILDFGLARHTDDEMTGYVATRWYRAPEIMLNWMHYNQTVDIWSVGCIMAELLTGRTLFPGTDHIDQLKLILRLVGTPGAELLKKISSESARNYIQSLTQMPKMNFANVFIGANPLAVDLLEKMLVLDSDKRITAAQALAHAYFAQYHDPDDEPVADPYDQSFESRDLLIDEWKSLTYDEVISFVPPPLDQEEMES

Compound | IC50 (activated p38) [nM] | IC50 ([1]; Homo sapiens, PBMC) [nM] | IC50 ([2]; Homo sapiens, PBMC) [nM] | IC50 ([3]; Homo sapiens) [nM] | IC50 ([4]; Homo sapiens) [nM] | IC50 ([5]; Homo sapiens) [nM] | IC50 [1] [nM] | IC50 [2] [nM] | IC50 [3] [nM] | IC50 [4] [nM] | IC50 [5] [nM]
Cc1cc(F)ccc1-c1cccc(N(C(N)=O)c2c(F)cccc2F)n1 [Compound 410] | ≤ 100 | ≤ 100 | ≤ 100 | 250 to 500 | 250 to 500 | 250 to 500 | – | – | – | – | –
Cc1ccccc1-c1cccc(C(C(N)=O)c2c(Cl)cccc2Cl)n1 (stereo not drawn) [Compound 305] | ≤ 100 | ≤ 100 | ≥ 500 | ≥ 500 | ≥ 500 | ≥ 500 | – | – | – | – | –
NC(=O)C(c1cccc(-c2ccc(F)cc2)n1)c1c(Cl)cccc1Cl (stereo not drawn) [Compound 309] | 100 to 1000 | 100 to 500 | 100 to 500 | ≥ 500 | ≥ 500 | ≥ 500 | – | – | – | – | –
Nc1cc(F)ccc1SC1=NN2CNC(=O)C(c3c(Cl)cccc3Cl)=C2C=C1 [Compound 117] | ≤ 100 | ≤ 100 | ≤ 100 | 250 to 500 | 250 to 500 | ≤ 250 | – | – | – | – | –
COc1ccc(C2=C3C=CC(Sc4ccc(F)cc4)=NN3CNC2=O)c(Cl)c1 [Compound 139] | ≤ 100 | ≤ 100 | ≥ 500 | ≥ 500 | ≥ 500 | ≥ 500 | – | – | – | – | –
O=C1NCN2N=C(Sc3ccc(F)cc3Cl)C=CC2=C1c1cc2c(cc1Cl)OCO2 [Compound 145] | ≤ 100 | – | – | – | – | – | ≤ 100 | ≤ 100 | ≤ 250 | ≤ 250 | ≤ 250
NC(=O)C(c1cccc(-c2ccccc2)n1)c1c(Cl)cccc1Cl (stereo not drawn) [202/301] | ≤ 100 | 100 to 500 | 100 to 500 | ≥ 500 | ≥ 500 | ≥ 500 | – | – | – | – | –
Nc1ccc(C2=C3C=CC(Sc4ccc(F)cc4)=NN3CNC2=O)c(Cl)c1 [Compound 137] | ≤ 100 | ≤ 100 | 100 to 500 | ≥ 500 | ≥ 500 | 250 to 500 | – | – | – | – | –
NC(=O)C(c1cccc(-c2ccccc2)n1)c1cc(Cl)ccc1Cl (stereo not drawn) [Compound 349] | ≥ 1000 | 100 to 500 | ≥ 500 | ≥ 500 | ≥ 500 | ≥ 500 | – | – | – | – | –
NC(=O)N(c1cccc(-c2ccc(F)cc2)n1)c1c(F)cccc1F [Compound 404] | ≤ 100 | ≤ 100 | ≤ 100 | ≥ 500 | ≥ 500 | ≥ 500 | – | – | – | – | –
Nc1ccc(Cl)c(-c2c(=O)ncn3nc(Sc4ccc(Br)cc4)ccc23)c1Cl [Compound 37] | 100 to 1000 | 100 to 500 | ≥ 500 | ≥ 500 | ≥ 500 | ≥ 500 | – | – | – | – | –
Cc1cc(F)ccc1-c1cccc(N(C(N)=O)c2cc3c(cc2Cl)OCO3)n1 [Compound 411] | ≤ 100 | ≤ 100 | ≤ 100 | ≥ 500 | ≥ 500 | ≥ 500 | – | – | – | – | –
Cc1ccccc1-c1cccc(C(C(N)=O)c2c(F)cccc2Cl)n1 (stereo not drawn) [Compound 335] | 100 to 1000 | ≥ 500 | ≥ 500 | ≥ 500 | ≥ 500 | ≥ 500 | – | – | – | – | –
O=C1C(c2c(Cl)cccc2Cl)=C2C=CC(Sc3ccc(F)cc3)=NN2CN1CO [Compound 138] | 100 to 1000 | ≤ 100 | 100 to 500 | ≥ 500 | ≥ 500 | ≤ 250 | – | – | – | – | –
O=C(CCl)Nc1ccc(-c2c(=O)ncn3nc(Sc4ccc(F)cc4)ccc23)c(Cl)c1 [Compound 49] | 100 to 1000 | ≤ 100 | ≥ 500 | ≥ 500 | ≥ 500 | ≥ 500 | – | – | – | – | –
O=C1NCN2N=C(Sc3ccc(F)cc3)C=CC2=C1c1cc2c(cc1Cl)OCO2 [Compound 129] | ≤ 100 | ≤ 100 | ≤ 100 | 250 to 500 | ≥ 500 | 250 to 500 | – | – | – | – | –
NC(=O)C(c1cccc(-c2ccc(Cl)cc2Cl)n1)c1c(Cl)cccc1Cl (stereo not drawn) [Compound 325] | ≤ 100 | ≤ 100 | 100 to 500 | ≥ 500 | ≥ 500 | ≥ 500 | – | – | – | – | –
Cc1cc(F)ccc1-c1cccc(C(C(N)=O)c2c(Cl)cccc2Cl)n1 (stereo not drawn) [Compound 363] | ≤ 100 | ≤ 100 | 100 to 500 | ≥ 500 | ≥ 500 | ≥ 500 | – | – | – | – | –
COC(=O)c1ccccc1SC1=NN2CNC(=O)C(c3c(Cl)cccc3Cl)=C2C=C1 [Compound 101] | 100 to 1000 | ≤ 100 | ≤ 100 | ≥ 500 | ≥ 500 | 250 to 500 | – | – | – | – | –
Nc1ccc(F)cc1SC1=NN2CNC(=O)C(c3c(Cl)cccc3Cl)=C2C=C1 [Compound 122] | 100 to 1000 | 100 to 500 | ≥ 500 | ≥ 500 | ≥ 500 | ≥ 500 | – | – | – | – | –
CNCc1ccccc1-c1cccc(C(C(N)=O)c2c(Cl)cccc2Cl)n1 (stereo not drawn) [Compound 303] | ≥ 1000 | ≥ 500 | ≥ 500 | ≥ 500 | ≥ 500 | ≥ 500 | – | – | – | – | –
Cc1cc(F)ccc1-c1cccc(C(C(N)=O)c2c(Cl)cc(N)cc2Cl)n1 (stereo not drawn) [Compound 364] | ≤ 100 | ≤ 100 | 100 to 500 | ≥ 500 | ≥ 500 | ≥ 500 | – | – | – | – | –
O=C(CN1CCOCC1)Nc1ccc(C2=C3C=CC(Sc4ccc(F)cc4)=NN3CNC2=O)c(Cl)c1 [Compound 144] | ≤ 100 | ≤ 100 | 100 to 500 | ≥ 500 | ≥ 500 | 250 to 500 | – | – | – | – | –
O=C1NCN2N=C(Sc3ccc(F)cc3Cl)C=CC2=C1c1cc2c(cc1Cl)OCO2 [Compound 136] | ≤ 100 | ≤ 100 | ≤ 100 | ≥ 500 | ≥ 500 | 250 to 500 | – | – | – | – | –
O=C1NCN2N=C(Sc3ccccc3O)C=CC2=C1c1c(Cl)cccc1Cl [Compound 114] | ≤ 100 | ≤ 100 | ≤ 100 | 250 to 500 | 250 to 500 | ≤ 250 | – | – | – | – | –
O=C1NCN2N=C(Sc3ccc(F)cc3)C=CC2=C1c1c(Cl)cccc1Cl [Compound 103] | ≤ 100 | ≤ 100 | ≤ 100 | ≥ 500 | 250 to 500 | 250 to 500 | – | – | – | – | –
CC(=O)Nc1ccc(C2=C3C=CC(Sc4ccc(F)cc4)=NN3CNC2=O)c(Cl)c1 [Compound 143] | ≤ 100 | ≤ 100 | 100 to 500 | ≥ 500 | ≥ 500 | ≥ 500 | – | – | – | – | –
O=c1ncn2nc(Sc3ccc(F)cc3Cl)ccc2c1-c1c(Cl)cccc1Cl [Compound 38] | ≤ 100 | ≤ 100 | 100 to 500 | 250 to 500 | 250 to 500 | 250 to 500 | – | – | – | – | –
O=c1ncn2nc(Sc3ccc(F)cc3)ccc2c1-c1c(Cl)cccc1Cl [Compound 12] | 100 to 1000 | 100 to 500 | 100 to 500 | ≥ 500 | ≥ 500 | ≥ 500 | – | – | – | – | –
O=C1NCN2N=C(Sc3ccccc3Br)C=CC2=C1c1c(Cl)cccc1Cl [Compound 109] | ≤ 100 | ≤ 100 | ≤ 100 | ≥ 500 | ≥ 500 | 250 to 500 | – | – | – | – | –
